Reference: patent publication US6461997B1, “Triazole sulfones having herbicidal activity” (Monsanto Technology LLC, priority 1999, dated 2002)

What was measured:
[1] = test system: CHEAL (common lambsquarters); assay: Pre-emergence herbicidal activity, warm season; format: in vivo, Chenopodium album; conditions: GR80 = lowest tested rate (300, 100, 30, 10 g/ha) with 80% or greater inhibition; approx. 14 days after treating; 30/21° C.
Method: (§1) Tables 5 to 8 summarize results of tests conducted as described below to determine the pre-emergence herbicidal activity, in the form of a GR80 value, of illustrative compounds of this invention. […] Compounds of the invention were typically applied at rates of 300, 100, 30, and 10 g/ha. Where herbicidal activity was evident but 80% inhibition was not achieved at the highest rate tested, an asterisk (*) is shown in the following tables.
(§2) The pre-emergence tests were conducted by the following procedure. Topsoil was sieved to pass through a 1.27 cm screen. Fertilizer was added to the topsoil and the mixture was then sterilized by heating. The topsoil mixture was placed in a pot and compacted to a depth of 1.0 to 1.25 cm from the top of the pot. Seeds of each of several monocotyledonous and dicotyledonous annual plant species were placed on top of the soil. Additional soil was subsequently placed over the seeds to level-fill the pot. A known amount of each test compound dissolved or suspended in an appropriate organic solvent was diluted with a 50:50 mix of acetone and water and applied to the surface of the soil. After treatment the plants were placed in a greenhouse where they received 0.64 cm of overhead irrigation. All subsequent watering consisted of a light overhead mist and/or subirrigation as needed for germination and growth. Tables 5 and 6 below relate to warm season plant species which were placed after pre-emergence treatment in a greenhouse with a 30/21° C. day/night temperature regime. Tables 7 and 8 below relates to cool season plant species placed after pre-emergence treatment in a greenhouse or growth chamber with an 18/13° C. day/night temperature regime.
(§3) Approximately 14 days after planting and treating, the plants were observed and herbicidal efficacy recorded as percent inhibition by comparison with untreated plants.
(§4) The plant species usually regarded as weeds which were utilized in the tests are identified in the tables below according to the following legend, in which “d” indicates a dicotyledonous species and “m” a monocotyledonous species. All monocotyledonous species included in the tests herein are grasses.

[2] = test system: POROL (common purslane); assay: Pre-emergence herbicidal activity, warm season; format: in vivo, Portulaca oleracea; conditions: GR80 = lowest tested rate (300, 100, 30, 10 g/ha) with 80% or greater inhibition; approx. 14 days after treating; 30/21° C.
Method: as §1, §2, §3, §4

[3] = test system: CIRAR (canada thistle (seedling)); assay: Pre-emergence herbicidal activity, warm season; format: in vivo, Cirsium arvense; conditions: GR80 = lowest tested rate (300, 100, 30, 10 g/ha) with 80% or greater inhibition; approx. 14 days after treating; 30/21° C.
Method: as §1, §2, §3, §4

[4] = test system: ECHCG (barnyardgrass); assay: Pre-emergence herbicidal activity, warm season; format: in vivo, Echinochloa crus-galli; conditions: GR80 = lowest tested rate (300, 100, 30, 10 g/ha) with 80% or greater inhibition; approx. 14 days after treating; 30/21° C.
Method: as §1, §2, §3, §4

[5] = test system: PANMI (wild proso millet); assay: Pre-emergence herbicidal activity, warm season; format: in vivo, Panicum miliaceum; conditions: GR80 = lowest tested rate (300, 100, 30, 10 g/ha) with 80% or greater inhibition; approx. 14 days after treating; 30/21° C.
Outline: (§5)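 Read-out: GR80, derived from percent growth inhibition relative to untreated plants at roughly 14 days after planting and treatment. Compounds went onto the surface of freshly seeded soil at 10–300 g/ha. Day/night regimes were 30/21 °C for millet and crabgrass, 18/13 °C for blackgrass and buckwheat.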

[6] = test system: GALAP (catchweed bedstraw); assay: Pre-emergence herbicidal activity, cool season; format: in vivo, Galium aparine; conditions: lowest tested rate with 80% or greater inhibition; rates 300, 100, 30, 10 g/ha; about 14 days
Outline: (§6)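 Seeds sown in sterilised fertilised topsoil received surface-applied compound in 50:50 acetone/water, typically at 300, 100, 30 and 10 g/ha, then greenhouse-grown at 30/21° C (warm-season species) or 18/13° C (cool-season species). Percent inhibition versus untreated plants was scored at about 14 days, giving GR80; an asterisk marks activity short of 80% at the top rate.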

[7] = test system: POLCO (wild buckwheat); assay: Pre-emergence herbicidal activity, cool season; format: in vivo, Polygonum convolvulus; conditions: lowest tested rate with 80% or greater inhibition; rates 300, 100, 30, 10 g/ha; about 14 days
Outline: as §5

[8] = test system: SINAR (wild mustard); assay: Pre-emergence herbicidal activity, cool season; format: in vivo, Sinapis arvensis; conditions: lowest tested rate with 80% or greater inhibition; rates 300, 100, 30, 10 g/ha; about 14 days
Outline: as §6

[9] = test system: VERPE (creeping speedwell); assay: Pre-emergence herbicidal activity, cool season; format: in vivo, Veronica persicaria; conditions: lowest tested rate with 80% or greater inhibition; rates 300, 100, 30, 10 g/ha; about 14 days
Outline: as §6

[10] = test system: SASKR (russian thistle); assay: Pre-emergence herbicidal activity, cool season; format: in vivo, Salsola kali; conditions: lowest tested rate with 80% or greater inhibition; rates 300, 100, 30, 10 g/ha; about 14 days
Outline: as §6

[11] = test system: STEME (common chickweed); assay: Pre-emergence herbicidal activity, cool season; format: in vivo, Stellaria media; conditions: lowest tested rate with 80% or greater inhibition; rates 300, 100, 30, 10 g/ha; about 14 days
Outline: as §6

[12] = test system: LAMPU (purple deadnettle); assay: Pre-emergence herbicidal activity, cool season; format: in vivo, Lamium purpureum; conditions: lowest tested rate with 80% or greater inhibition; rates 300, 100, 30, 10 g/ha; about 14 days
Outline: as §6

[13] = test system: ALOMY (blackgrass); assay: Pre-emergence herbicidal activity, cool season; format: in vivo, Alopecurus myosuroides; conditions: GR80 = lowest tested rate (300, 100, 30, 10 g/ha) with 80% or greater inhibition; approx. 14 days after treating; 18/13° C.
Method: as §1, §2, §3, §4

[14] = test system: SETVI (green foxtail); assay: Pre-emergence herbicidal activity, cool season; format: in vivo, Setaria viridis; conditions: GR80 = lowest tested rate (300, 100, 30, 10 g/ha) with 80% or greater inhibition; approx. 14 days after treating; 18/13° C.
Outline: as §6

[15] = test system: AGSST (creeping bentgrass); assay: Pre-emergence herbicidal activity, cool season; format: in vivo, Agrostis stolonifera; conditions: GR80 = lowest tested rate (300, 100, 30, 10 g/ha) with 80% or greater inhibition; approx. 14 days after treating; 18/13° C.
Outline: as §6

[16] = test system: SOLNI (black nightshade); assay: Pre-emergence herbicidal activity, warm season; format: in vivo, Solanum nigrum; conditions: GR80 = lowest tested rate (300, 100, 30, 10 g/ha) with 80% or greater inhibition; approx. 14 days after treating; 30/21° C.
Method: as §1, §2, §3, §4

[17] = test system: AMARE (redroot pigweed); assay: Pre-emergence herbicidal activity, warm season; format: in vivo, Amaranthus retroflexus; conditions: GR80 = lowest tested rate (300, 100, 30, 10 g/ha) with 80% or greater inhibition; approx. 14 days after treating; 30/21° C.
Method: as §1, §2, §3, §4

[18] = test system: SORHA (johnsongrass (seedling)); assay: Pre-emergence herbicidal activity, warm season; format: in vivo, Sorghum halepense; conditions: GR80 = lowest tested rate (300, 100, 30, 10 g/ha) with 80% or greater inhibition; approx. 14 days after treating; 30/21° C.
Method: as §1, §2, §3, §4

[19] = test system: SETFA (giant foxtail); assay: Pre-emergence herbicidal activity, warm season; format: in vivo, Setaria faberi; conditions: GR80 = lowest tested rate (300, 100, 30, 10 g/ha) with 80% or greater inhibition; approx. 14 days after treating; 30/21° C.
Method: as §1, §2, §3, §4

[20] = test system: DATST (jimsonweed); assay: Pre-emergence herbicidal activity, warm season; format: in vivo, Datura stramonium; conditions: GR80 = lowest tested rate (300, 100, 30, 10 g/ha) with 80% or greater inhibition; approx. 14 days after treating; 30/21° C.
Method: as §1, §2, §3, §4

[21] = test system: SORVU (shattercane); assay: Pre-emergence herbicidal activity, warm season; format: in vivo, Sorghum vulgare; conditions: GR80 = lowest tested rate (300, 100, 30, 10 g/ha) with 80% or greater inhibition; approx. 14 days after treating; 30/21° C.
Method: as §1, §2, §3, §4

[22] = test system: BRAPP (broadleaf signalgrass); assay: Pre-emergence herbicidal activity, warm season; format: in vivo, Brachiaria platyphylla; conditions: GR80 = lowest tested rate (300, 100, 30, 10 g/ha) with 80% or greater inhibition; approx. 14 days after treating; 30/21° C.
Method: as §1, §2, §3, §4

[23] = test system: DIGSA (large crabgrass); assay: Pre-emergence herbicidal activity, warm season; format: in vivo, Digitaria sanguinalis; conditions: GR80 = lowest tested rate (300, 100, 30, 10 g/ha) with 80% or greater inhibition; approx. 14 days after treating; 30/21° C.
Method: as §1, §2, §3, §4

SMILES	Pre-emergence activity (GR80) CHEAL [1] [g/ha]	Pre-emergence activity (GR80) POROL [2] [g/ha]	Pre-emergence activity (GR80) CIRAR [3] [g/ha]	Pre-emergence activity (GR80) ECHCG [4] [g/ha]	Pre-emergence activity (GR80) PANMI [5] [g/ha]	Pre-emergence activity GR80, GALAP [6]	Pre-emergence activity GR80, POLCO [7]	Pre-emergence activity GR80, SINAR [8]	Pre-emergence activity GR80, VERPE [9]	Pre-emergence activity GR80, SASKR [10]	Pre-emergence activity GR80, STEME [11]	Pre-emergence activity GR80, LAMPU [12] [g/ha]	Pre-emergence activity (GR80) ALOMY [13] [g/ha]	Pre-emergence activity (GR80) SETVI [14] [g/ha]	Pre-emergence activity (GR80) AGSST [15] [g/ha]	Pre-emergence activity (GR80) SOLNI [16] [g/ha]	Pre-emergence activity (GR80) AMARE [17] [g/ha]	Pre-emergence activity (GR80) SORHA [18] [g/ha]	Pre-emergence activity (GR80) SETFA [19] [g/ha]	other results
CN(C)C(=O)n1cnc(S(=O)(=O)C(F)(F)C(F)F)n1 [Example 61]	300	300	300	300	300	100 g/ha	[empty]	300 g/ha	100 g/ha	100 g/ha	300 g/ha	300	100	300	100					
O=C(N1CCCC1)n1cnc(S(=O)(=O)C(F)(F)C(F)F)n1 [Example 71]	30	300	300		300	100 g/ha	300 g/ha	[empty]	[empty]	[empty]	300 g/ha	300	300	100	100	300	300	300	300	
O=C(N1CCOCC1)n1cnc(S(=O)(=O)C(F)(F)Cl)n1 [Example 84]						[empty]	300 g/ha	[empty]	[empty]	[empty]	[empty]	300								Pre-emergence activity (GR80) DATST [20]: 300 g/ha
CCCN(CC)C(=O)n1cnc(S(=O)(=O)C(F)(F)Cl)n1 [Example 87]	300	100	300	100	30	300 g/ha	[empty]	[empty]	100 g/ha	[empty]	[empty]	100	100	100	100	100	300	100	300	Pre-emergence activity (GR80) SORVU [21]: 300 g/ha; Pre-emergence activity (GR80) BRAPP [22]: 300 g/ha; Pre-emergence activity (GR80) DIGSA [23]: 300 g/ha
